Measurements as given in publication PMC2829385 (The Journal of investigative dermatology, 2009).
pIC50: −log10 of the molar value. Several values for one entry are separate records, joined by “and”; a condition that tells them apart may be missing. Identical values can stand only once. Entries after “also recorded” stand apart in the source; their conditions may differ. Counter-ions that a name gives are not always drawn.

What was measured:
cAMP phosphodiesterase = details: read-out: IC50 cAMP phosphodiesterase; ref Butcher and Sutherland, 1962; cited from earlier work
[1] = system: UV-induced skin carcinogenesis; details: mice, oral caffeine as drinking fluid 0.4 mg/ml; ref Huang et al., 1997; cited from earlier work
[2] = humans drinking 2–5 cups of coffee per day; ref de Leon et al., 2003; cited from earlier work
ATM = details: read-out: IC50 for ATM; ref Sarkaria et al., 1999; cited from earlier work
[3] = system: ATR-dependent serine 345 residue of Chk1; experiment: Western blot of UVB-induced Chk1 Ser345 phosphorylation in keratinocytes; type: cell-based, human; details: 2 mM caffeine, 75 mJ/cm^2 UVB (Figure 2a)
[4] = system: phosphorylation of Chk1 on Ser345; details: mice, oral caffeine in drinking water 0.4 mg/ml (2 mM); ref Lu et al., 2008; cited from earlier work
[5] = system: primary human keratinocytes; experiment: Western blot of UVB-induced caspase 3 and PARP cleavage in keratinocytes; type: cell-based; details: 2 mM caffeine, 75 mJ/cm^2 UVB, 8 h (Figure 1a)
[6] = system: primary human keratinocytes; experiment: UVB-induced apoptosis, sub-2N DNA content by flow cytometry; type: cell-based

Cn1c(=O)c2c(ncn2C)n(C)c1=O [caffeine, Caffeine]
pIC50 (cAMP phosphodiesterase): 2.52 | effect on UV-induced skin carcinogenesis [1]: inhibits | plasma concentration of caffeine [2]: 3.2 mg/l and 16 μM | pIC50 (ATM): 3.70 | effect on UVB-induced Chk1 phosphorylation at serine 345 [3]: inhibited | effect on UVB-induced phosphorylation of Chk1 on Ser345 in the epidermis [4]: markedly inhibited | effect on UVB-induced cleavage of caspase 3 and PARP [5]: augmented | proportion of cells undergoing apoptosis (sub-2N DNA content) ([6]; 2 mM caffeine 30 min before 75 mJ/cm^2 UVB, 24 h, UVB alone 10% (Figure 1b)): 24% | proportion of cells undergoing apoptosis (sub-2N DNA content) ([6]; 2 mM caffeine alone (scrambled siRNA), 75 mJ/cm^2 UVB, 24 h (Figure 2c)): 42% | proportion of cells undergoing apoptosis (sub-2N DNA content) ([6]; 2 mM caffeine plus ATR siRNA, 75 mJ/cm^2 UVB, 24 h (Figure 2c)): 48% | increase in UVB-induced apoptosis vs UVB alone (relative cell death) ([6]; 2 mM caffeine pretreatment, 75 mJ/cm^2 UVB (Figure 1c)): two- to three-fold increase; also recorded: more than doubled

CCCC(=O)Nc1ncnc2c1ncn2[C@@H]1O[C@@H]2COP(=O)(O)O[C@H]2[C@H]1OC(=O)CCC [dibutyryl cAMP, N^6,2′-O-Dibutyryladenosine 3′,5′-cyclic monophosphate sodium salt]
effect on UVB-induced apoptosis ([6]; doses up to 300 μM, 30 min before 75 mJ/cm^2 UVB, 24 h (Figure 1d)): no effect
